In patent US20250179061A1 (SIRONAX LTD., priority 2022, published 2025):
Where a name gives a salt, the structure may show the parent alone. Read-outs that look alike come from different tables or passages of the source.

Test system: HT-29 cells
Experiment: HT-29 necroptosis cell viability assay (TNF-α/SMAC mimetic/zVAD-FMK, CellTiter-Glo)
Format: cell-based
In short: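 HT-29 cells (~5,000/well, overnight) in FBS-free McCoy's 5A with TNF-α 10 ng/ml, SMAC mimetic 6 μM and zVAD-FMK 10 μM plus 10-point 1:3 compound titration, 20 h at 37°C. ATP measured by CellTiter-Glo luminescence; IC50 as geometric mean of duplicates.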

[1] = Homo sapiens, HT-29, HT-29 necroptosis cell viability assay, class symbols for IC50, read-out: Activity
[2] = Homo sapiens, HT-29 cells stimulated with TNF-α (10 ng/ml), SMAC mimetic (6 μM) and zVAD-FMK (10 μM), 20 hours, CellTiter-Glo ATP luminescence, geometric mean IC50 from 10 points, read-out: Activity
[3] = Homo sapiens, HT-29, HT-29 necroptosis cell viability, IC50 class symbols, read-out: Activity
[4] = Homo sapiens, HT-29, HT-29 cells, necroptosis induced by TNF-α/SMAC mimetic/zVAD-FMK, CellTiter-Glo, read-out: Activity (IC50 class)

## Cn1nc(C(C)(C)O)cc1Oc1ccc(-n2nc3n(c2=O)C(c2ccccc2)CC3)cc1F (stereo not shown) [Example 130, 2-(3-fluoro-4-((3-(2-hydroxypropan-2-yl)-1-methyl-1H-pyrazol-5-yl)oxy)phenyl)-5-phenyl-2,5,6,7-tetrahydro-3H-pyrrolo[2,1-c][1,2,4]triazol-3-one]
[1]
  IC50: < 100 nM

## O=c1n(Cc2ccccc2)cnn1-c1ccc(Cc2ccccc2)cc1 [Example 66, 4-benzyl-2-(4-benzylphenyl)-2,4-dihydro-3H-1,2,4-triazol-3-one]
[2]
  IC50: < 100 nM

## COc1cc(S(=O)(=O)c2ccc(-n3ncn(Cc4c(F)cccc4F)c3=O)cc2)ccn1 [Example 618, 4-(2,6-difluorobenzyl)-2-(4-((2-methoxypyridin-4-yl)sulfonyl)phenyl)-2,4-dihydro-3H-1,2,4-triazol-3-one]
[1]
  IC50: < 100 nM

## Cc1nc(C(N)=O)sc1Oc1ccc(-n2ncn(Cc3ccccc3F)c2=O)cc1F [Example 562, 5-(2-fluoro-4-(4-(2-fluorobenzyl)-5-oxo-4,5-dihydro-1H-1,2,4-triazol-1-yl)phenoxy)-4-methylthiazole-2-carboxamide]
[1]
  IC50: < 100 nM

## Cc1csc(COc2ccc(-n3ncn(Cc4c(F)cccc4F)c3=O)cc2)n1 [Example 98, 4-(2,6-difluorobenzyl)-2-(4-((4-methylthiazol-2-yl)methoxy)phenyl)-2,4-dihydro-3H-1,2,4-triazol-3-one]
[2]
  IC50: 100 to 1000 nM

## Cc1nc(C(N)=O)sc1Oc1ccc(-n2ncn(Cc3cnccc3Cl)c2=O)cc1F [Example 31, 5-(4-(4-((4-chloropyridin-3-yl)methyl)-5-oxo-4,5-dihydro-1H-1,2,4-triazol-1-yl)-2-fluorophenoxy)-4-methylthiazole-2-carboxamide]
[2]
  IC50: < 100 nM

## Cc1nc(N2CC(N)(CF)C2)sc1Cc1ccc(-n2ncn(Cc3c(F)cccc3F)c2=O)cc1F [Example 62, 2-(4-((2-(3-amino-3-(fluoromethyl)azetidin-1-yl)-4-methylthiazol-5-yl)methyl)-3-fluorophenyl)-4-(2,6-difluorobenzyl)-2,4-dihydro-3H-1,2,4-triazol-3-one trifluoroacetate]
[2]
  IC50: < 100 nM

## CNC(=O)c1nc(C)c(Oc2ccc(-n3ncn(Cc4ccccc4F)c3=O)cc2F)s1 [Example 595, 5-(2-fluoro-4-(4-(2-fluorobenzyl)-5-oxo-4,5-dihydro-1H-1,2,4-triazol-1-yl)phenoxy)-N,4-dimethylthiazole-2-carboxamide]
[1]
  IC50: < 100 nM

## Cc1nc(C(N)=O)c(C)n1Cc1ccc(-n2ncn(Cc3c(F)cccc3F)c2=O)cc1F [Example 217, 1-(4-(4-(2,6-difluorobenzyl)-5-oxo-4,5-dihydro-1H-1,2,4-triazol-1-yl)-2-fluorobenzyl)-2,5-dimethyl-1H-imidazole-4-carboxamide]
[1]
  IC50: 100 to 1000 nM

## Cc1nc(C(C)(C)O)cn1Cc1ccc(-n2ncn(Cc3c(F)cccc3F)c2=O)cc1F [Example 137, 4-(2,6-difluorobenzyl)-2-(3-fluoro-4-((4-(2-hydroxypropan-2-yl)-2-methyl-1H-imidazol-1-yl)methyl)phenyl)-2,4-dihydro-3H-1,2,4-triazol-3-one]
[1]
  IC50: 1000 to 10000 nM

## Cc1nc(N2C[C@@H](O)CC2=O)sc1Oc1ccc(-n2ncn(Cc3c(F)cccc3F)c2=O)cc1F [Example 76, (S)-4-(2,6-difluorobenzyl)-2-(3-fluoro-4-((2-(4-hydroxy-2-oxopyrrolidin-1-yl)-4-methylthiazol-5-yl)oxy)phenyl)-2,4-dihydro-3H-1,2,4-triazol-3-one]
[2]
  IC50: < 100 nM

## Nc1ccccc1Oc1ccc(-n2ncn(Cc3c(F)cccc3F)c2=O)cc1 [Example 439, 2-(4-(2-aminophenoxy)phenyl)-4-(2,6-difluorobenzyl)-2,4-dihydro-3H-1,2,4-triazol-3-one]
[3]
  IC50: < 100 nM

## Cc1nc(N2C[C@H](N)[C@@H]2C)sc1Oc1ccc(-n2ncn(Cc3c(F)cccc3F)c2=O)cc1 [Example 73, 2-(4-((2-((2S,3S)-3-amino-2-methylazetidin-1-yl)-4-methylthiazol-5-yl)oxy)phenyl)-4-(2,6-difluorobenzyl)-2,4-dihydro-3H-1,2,4-triazol-3-one]
[2]
  IC50: < 100 nM

## Cc1cc(-n2ncn(Cc3c(F)cccc3F)c2=O)ccc1Oc1ccnc(N2CC3(CCOCC3)C2)c1 [Example 274, 2-(4-((2-(7-oxa-2-azaspiro[3.5]nonan-2-yl)pyridin-4-yl)oxy)-3-methylphenyl)-4-(2,6-difluorobenzyl)-2,4-dihydro-3H-1,2,4-triazol-3-one]
[3]
  IC50: 1000 to 10000 nM

## CCOC1(C)CN(c2cc(Oc3ccc(-n4ncn(Cc5c(F)cccc5F)c4=O)cc3Cl)c(F)cn2)C1 [Example 501, 2-(3-chloro-4-((2-(3-ethoxy-3-methylazetidin-1-yl)-5-fluoropyridin-4-yl)oxy)phenyl)-4-(2,6-difluorobenzyl)-2,4-dihydro-3H-1,2,4-triazol-3-one]
[1]
  IC50: < 100 nM

## Cc1nc(N2CC(N)(CF)C2)sc1Oc1ccc(-n2ncn(Cc3c(F)cccc3F)c2=O)cc1F [Example 452, 2-(4-((2-(3-amino-3-(fluoromethyl)azetidin-1-yl)-4-methylthiazol-5-yl)oxy)-3-fluorophenyl)-4-(2,6-difluorobenzyl)-2,4-dihydro-3H-1,2,4-triazol-3-one]
[3]
  IC50: < 100 nM

## CC1(N)CN(c2nccc(Oc3ccc(-n4ncn(Cc5c(F)cccc5F)c4=O)cc3Cl)c2F)C1 [Example 423, 2-(4-((2-(3-amino-3-methylazetidin-1-yl)-3-fluoropyridin-4-yl)oxy)-3-chlorophenyl)-4-(2,6-difluorobenzyl)-2,4-dihydro-3H-1,2,4-triazol-3-one]
[3]
  IC50: < 100 nM

## Cc1c(Oc2ccc(-n3ncn(Cc4c(F)cccc4F)c3=O)cc2F)ccnc1N1CC(C)(N)C1 [Example 417, 2-(4-((2-(3-amino-3-methylazetidin-1-yl)-3-methylpyridin-4-yl)oxy)-3-fluorophenyl)-4-(2,6-difluorobenzyl)-2,4-dihydro-3H-1,2,4-triazol-3-one]
[3]
  IC50: < 100 nM

## O=c1n(Cc2c(F)cccc2F)cnn1-c1ccc(Oc2ccnc(N3CC(F)(C4CC4)C3)c2)cc1 [Example 280, 2-(4-((2-(3-cyclopropyl-3-fluoroazetidin-1-yl)pyridin-4-yl)oxy)phenyl)-4-(2,6-difluorobenzyl)-2,4-dihydro-3H-1,2,4-triazol-3-one]
[3]
  IC50: 100 to 1000 nM

## Cc1nn(Cc2ccc(-n3ncn(Cc4c(F)cccc4F)c3=O)cc2)c(C)c1C [Example 189, 4-(2,6-difluorobenzyl)-2-(4-((3,4,5-trimethyl-1H-pyrazol-1-yl)methyl)phenyl)-2,4-dihydro-3H-1,2,4-triazol-3-one]
[1]
  IC50: < 100 nM

## COC(=O)c1ncsc1Oc1ccc(-n2ncn(Cc3c(F)cccc3F)c2=O)cc1F [Example 128, methyl 5-(4-(4-(2,6-difluorobenzyl)-5-oxo-4,5-dihydro-1H-1,2,4-triazol-1-yl)-2-fluorophenoxy)thiazole-4-carboxylate]
[1]
  IC50: 100 to 1000 nM

## Cc1nc(C2CCCC2)sc1Oc1ccc(-n2ncn(Cc3c(F)cccc3F)c2=O)cc1 [Example 558, 2-(4-((2-cyclopentyl-4-methylthiazol-5-yl)oxy)phenyl)-4-(2,6-difluorobenzyl)-2,4-dihydro-3H-1,2,4-triazol-3-one]
[1]
  IC50: < 100 nM

## Cc1nc([C@@H](C)O)sc1Oc1ccc(-n2ncn(Cc3c(F)cccc3F)c2=O)cc1F (single isomer, unassigned) [Example 461]
[3]
  IC50: < 100 nM

## Cc1nc(C(N)=O)sc1Oc1ccc(-n2ncn(Cc3cc(F)ccc3F)c2=O)cc1F [Example 564, 5-(4-(4-(2,5-difluorobenzyl)-5-oxo-4,5-dihydro-1H-1,2,4-triazol-1-yl)-2-fluorophenoxy)-4-methylthiazole-2-carboxamide]
[1]
  IC50: < 100 nM

## Cc1nc(N2C[C@@H](N)[C@@H]2C)sc1Oc1ccc(-n2ncn(Cc3c(F)cccc3F)c2=O)cc1 [Example 72, 2-(4-((2-((2S,3R)-3-amino-2-methylazetidin-1-yl)-4-methylthiazol-5-yl)oxy)phenyl)-4-(2,6-difluorobenzyl)-2,4-dihydro-3H-1,2,4-triazol-3-one]
HT-29 cells stimulated with TNF-α (10 ng/ml), SMAC mimetic (6 μM) and zVAD-FMK (10 μM), 20 hours, CellTiter-Glo ATP luminescence, geometric mean IC50 from 10 points, read-out: Activity
  IC50: < 100 nM

## Cc1nc(C(N)=O)sc1Oc1ncc(-n2ncn(Cc3c(F)cccc3F)c2=O)cc1Cl [Example 647, 5-((3-chloro-5-(4-(2,6-difluorobenzy1)-5-oxo-4,5-dihydro-1H-1,2,4-triazol-1-yl)pyridin-2-yl)oxy)-4-methylthiazole-2-carboxamide]
[4]
  IC50: < 100 nM

## O=c1n(Cc2c(F)cccc2F)cnn1-c1ccc(Oc2ccnc(NC34CC(C3)C4)c2)cc1 [Example 306, 2-[4-[[2-(1-bicyclo[1.1.1]pentanylamino)-4-pyridyl]oxy]phenyl]-4-[(2,6-difluorophenyl)methyl]-1,2,4-triazol-3-one]
[3]
  IC50: 100 to 1000 nM

## Cc1nc(Br)nn1Cc1ccc(-n2ncn(Cc3c(F)cccc3F)c2=O)cc1 [Example 663, 2-(4-((3-bromo-5-methyl-1H-1,2,4-triazol-1-yl)methyl)phenyl)-4-(2,6-difluorobenzyl)-2,4-dihydro-3H-1,2,4-triazol-3-one]
[4]
  IC50: 100 to 1000 nM

## Cc1nc(C(N)=O)sc1Oc1ccc(-n2nc3n(c2=O)[C@H](c2ccccc2)CC3)cc1Cl (single isomer, unassigned) [Example 16]
[2]
  IC50: < 100 nM

## Cc1cc(C(N)=O)oc1Oc1ccc(-n2nc3n(c2=O)[C@H](c2ccccc2)CC3)cc1F (single isomer, unassigned) [Example 694]
[2]
  IC50: < 100 nM

## CC1CN(c2cc(Oc3ccc(-n4ncn(Cc5c(F)cccc5F)c4=O)cc3)ccn2)CC1C#N (stereo not shown) [Example 281, 1-(4-(4-(4-(2,6-difluorobenzyl)-5-oxo-4,5-dihydro-1H-1,2,4-triazol-1-yl)phenoxy)pyridin-2-yl)-4-methylpyrrolidine-3-carbonitrile]
[3]
  IC50: < 100 nM
